We go through 1 compound from patent US6399580B1, “Methods and compositions for stimulating tissue growth and epithelial moisturization” (The Regents of the University of California, priority 1994, dated 2002).

The structures appear in SMILES notation.

The test system of test [1] is murine epidermis. Briefly: Total epidermal DNA content after topical CBE. The test is classed as in vivo, mouse. Here is the method: In addition to measuring DNA synthesis by [^3H]-thymidine incorporation, total epidermal DNA content was determined after applications of CBE. 100 μl of epidermal homogenate was obtained from mice and stored at −70° C. Samples were diluted with Hoechst buffer (pH 7.4) in duplicate. Each sample was brought up to 1 ml with Hoechst buffer. 1 ml of bisbenzimadazole (diluted 1:1000 with dist H2O) was added and samples were vortexed. Standards were prepared using 134 μg/ml calf thymus DNA diluted 1:10 with Hoechst buffer. Final concentration of DNA ranged from 0.067 to 0.335 μg. All samples and standards were covered for 2 hours and absorbance at […] was determined (LaBarca, C. and Paigan (1980) Anal. Biochem. 102:344-352).

Test [2] has as its system cultured human keratinocytes. Briefly: [3H]-thymidine incorporation and DNA content in cultured human keratinocytes. Type of test: cell-based. The note with it: 24 hours, FIG. 12. Here is the method: To determine the ability of exogenous glucosylceramides (GlcCER) to stimulate epidermal proliferation, we applied various concentrations of GlcCER to cultural human keratinocytes (third passage). Keratinocytes were isolated from human neonatal foreskins by a modification of the method of Pittelkow, M. R. and Scott, R. E. ( (1986) Proc. Mayo Clin. 61:771-777) Cells were added to 100 mm plastic Petri dishes at a density of 1 to 2×10^4 cells/cm^2, and grown initially in 10mls of Keratinocyte Growth Medium (KGM) (Clonetics, San Diego, Calif.) with 0.07 mM calcium. The cultures were maintained at 35° C. under 5% CO2 in air, with medium changes performed three times weekly. After the cells reached 70%-80% confluence, they were switched to KGM medium containing 1.2 mM calcium, and harvested at one week post-confluence. GlcCER was added for the last 24 hours of culture and ^3H-thymidine (1 μCi/ml) was added one-to-three hours prior to harvesting of cells for measurement of DNA synthesis and DNA content. (Proksch, E., et al., J. Clin. Invest. 87:1668-1673 (1991).
Using the method described in Example 5, incorporation of [^3H]-thymidine and total DNA content were measured in cultured human keratinocytes (CHK) grown in serum-free keratinocyte growth medium (KGM) supplemented with 0.07 mM .calcium. Cultured cell were further supplemented as indicated, with ceramide (Cer; 5 or 10 μM), glucosylceramide (GlcCER; 1.25 or 2.5 μM), or a combination of ceramide and glucosylceramide (10 and 1.25 μM, respectively).
CHK cells were grown in serum-free KGM supplemented both with 0.07 mM calcium and 10 μM ceramide (CER). Increasing concentrations of glucosylceramide were added (2.5 to 10 μM), and both [^3H]-thymidine (1 μCi/ml) and [^14C]-leucine (1 μCi/ml) incorporation assays were performed.
CHK cells were grown (as in Example 6)in serum-free KGM (0.07 mM calcium) and supplemented with increasing concentrations of ceramide (CER) alone (dark bars), glucosylceramide (GlcCer) alone (back row), or the combination of ceramide (10 μM) with increasing glucosylceramide (front row). […] Glucosylceramide alone again stimulated thymidine incorporation (>20%) at low concentrations (1.25 and 2.5 μM).
CHK cells were grown (as in Example 6) in serum-free KGM ([…]) supplemented with glucosylceramide (GlcCER) alone, or in combination with the β-glucocerebrosidase-inhibitor, CBE (3 or 10 μM) (FIG. 12). Incorporation of [^3H]-thymidine was measured at 24 hours following supplementation, and values are reported as percent of unsupplemented controls (mean ±S.D.; n>6). […] A low CBE concentration (3 μM) was ineffective.

For test [3], the system named is murine epidermis. Briefly: Epidermal DNA synthesis, [3H]-thymidine incorporation in vivo. Details: species or system mouse. The settings on record: CBE 750 nmol/5cm^2/day, five days; FIG. 17. (In general: Uptake of a labelled nucleoside into DNA is a usual measure of proliferation.)
Test [4] concerns hairless mouse skin. Briefly: Appearance and texture of treated skin. The note with it: application of CBE. The test is classed as in vivo. Here is the method:
To determine whether inhibitors of β-glucocerebrosidase would cause more profound effects than applications of exogenous GlcCER alone (examples 5&6), we next applied the specific, suicide inhibitor, bromoconduritol-B-epoxide (BrCBE) to intact hairless mouse skin (Simonsen Laboratories, Gilroy, Calif.) (Holleran, W. M. et al., J. Clin. Invest. (1993) 91:1656-1664). BrCBE (325 nmol in 20 μl propylene glycol:ethanol, 7:3 vols) was applied once daily for 0-14 days. (Holleran, W. M. et al. (1994) J. Clin. Inv. 93:1756-1764)

For the compound `O[C@H]1[C@H](O)[C@@H](O)[C@@H]2O[C@@H]2[C@@H]1O` (racemic) [CBE, conduritol-B-epoxide], the “DNA concentration, higher than untreated samples” value in test [1] (24 hours following CBE treatment, FIG. 20 & 21) was 6-81%; in test [1] (3 days of CBE-treatment, FIG. 19), 45-113%. In addition, in test [1] (5 days of CBE-treatment, FIG. 18), the “DNA concentration, higher than untreated skin samples” value is reported as 46-331%. The figures for the “inhibition of thymidine incorporation caused by higher glucosylceramide concentrations” value in test [2] (CBE 3 μM with GlcCER) and in test [2] (CBE 10 μM with GlcCER) were “ineffective” and “blocked the inhibition”, respectively. Further, the “proliferative index, CBE-treated over control epidermis ([3H]-thymidine incorporation)” value in test [3] is reported as “approximately 1.6”. In addition, in test [4], the “thickness, firmness and pliability of murine skin” value is reported as “increased”.
